{"source": "patent US8455475B2", "about": "(Gruenenthal GmbH, priority 2009, dated 2013)", "data": [{"target": "T1, rat B1R (bradykinin receptor 1) (Rattus norvegicus, UniProt P97583)", "T1 construct": "expressed in transfected cells; host or cells: CHO K1 cells", "T1 sequence (P97583 1-337)": "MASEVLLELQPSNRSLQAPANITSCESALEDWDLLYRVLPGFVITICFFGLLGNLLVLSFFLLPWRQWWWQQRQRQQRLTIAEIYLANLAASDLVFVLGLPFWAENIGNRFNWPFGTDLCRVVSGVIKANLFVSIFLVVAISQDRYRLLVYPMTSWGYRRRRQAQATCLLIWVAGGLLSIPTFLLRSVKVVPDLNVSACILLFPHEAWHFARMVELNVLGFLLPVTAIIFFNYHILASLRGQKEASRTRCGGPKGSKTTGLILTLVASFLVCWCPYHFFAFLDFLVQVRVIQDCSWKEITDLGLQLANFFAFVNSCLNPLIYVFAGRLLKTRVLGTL", "assay": "FLIPR Ca2+ assay (Fluo-4) on CHO K1 cells stably transfected with the B1R gene of the rat (rB1R cells): % inhibition at 10 μM / IC50, agonist Des-Arg9-bradykinin", "type": "cell-based", "conditions": "CHO-K1, rat B1R", "procedure,_shortened": "(§1)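 Cells were Fluo-4-loaded, then test compound (10 μM, or a concentration series for IC50) was preincubated 10–20 min before agonist challenge at EC80: Lys-Des-Arg9-bradykinin for hB1R, Des-Arg9-bradykinin for rB1R. Peak Ca2+ fluorescence (ex 488/em 540 nm) gave % inhibition versus maximal achievable inhibition.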", "units": {"inhibition at 10 µM": "%"}, "values": [{"molecule": "CC(C)C(=O)NC1CCc2ccc(C(=O)N3CCC4(CCN(c5ccncc5)CC4)C3)cc21", "note": "(centres unmarked) [IND_CC-419, 2-Methyl-N-[6-(8-pyridin-4-yl-2,8-diazaspiro[4.5]decane-2-carbonyl)-2,3-dihydro-1H-inden-1-yl]-propionamide]", "inhibition at 10 µM": 101}, {"molecule": "CN(C1CCc2ccc(C(=O)N3CCC4(CC3)CCN(c3ccncc3)CC4)cc21)S(=O)(=O)c1cc(Cl)c(Cl)cc1Cl", "note": "(centres unmarked) [IND_CC-362, 2,4,5-Trichloro-N-methyl-N-[6-(9-pyridin-4-yl-3,9-diazaspiro[5.5]undecane-3-carbonyl)-2,3-dihydro-1H-inden-1-yl]-benzenesulfonic acid amide]", "inhibition at 10 µM": 81}, {"molecule": "CN(C)c1ccc(NC(=O)N2CCC3(CC2)CCN(C(=O)c2ccc4c(c2)C(NC(=O)c2ccccc2Cl)CC4)CC3)cc1", "note": "(centres unmarked) [IND_CC-707, 3-[3-[(2-Chloro-benzoyl)amino]-2,3-dihydro-1H-indene-5-carbonyl]-N-(4-dimethylaminophenyl)-3,9-diazaspiro[5.5]undecane-9-carboxylic acid amide]", "inhibition at 10 µM": 92}, {"molecule": "O=C(NC1CCc2ccc(C(=O)N3CCC4(CCN(Cc5ccc(F)cc5Cl)CC4)CC3)cc21)c1cc(C(F)(F)F)ccc1Cl", "note": "(centres unmarked) [IND_CC-669, 2-Chloro-N-[6-[9-[(2-chloro-4-fluoro-phenyl)-methyl]-3,9-diazaspiro[5.5]-undecane-3-carbonyl]-2,3-dihydro-1H-inden-1-yl]-5-(trifluoromethyl)benzamide]", "inhibition at 10 µM": 60}, {"molecule": "Cc1cc(F)ccc1S(=O)(=O)NC1c2cc(C(=O)N3CCC4(CC3)CCN(c3ccncc3)CC4)ccc2CC1(C)C", "note": "(centres unmarked) [IND_CC-338, N-[2,2-Dimethyl-6-(9-pyridin-4-yl-3,9-diazaspiro[5.5]undecane-3-carbonyl)-1,3-dihydro-inden-1-yl]-4-fluoro-2-methyl-benzenesulfonic acid amide]", "inhibition at 10 µM": 103}, {"molecule": "Cc1cccc(Cl)c1C(=O)NC1CCc2ccc(C(=O)N3CCC4(CCN(Cc5ccc6nccnc6c5)CC4)C3)cc21", "note": "(centres unmarked) [IND_CC-765, 2-Chloro-6-methyl-N-[6-[8-(quinoxalin-6-yl-methyl)-2,8-diazaspiro[4.5]-decane-2-carbonyl]-2,3-dihydro-1H-inden-1-yl]-benzamide]", "inhibition at 10 µM": 105}, {"molecule": "O=C(NC1CCc2ccc(C(=O)N3CCC4(CCN(c5ccncc5)CC4)C3)cc21)c1c(F)cccc1F", "note": "(centres unmarked) [IND_CC-386, 2,6-Difluoro-N-[6-(8-pyridin-4-yl-2,8-diazaspiro[4.5]decane-2-carbonyl)-2,3-dihydro-1H-inden-1-yl]-benzamide]", "inhibition at 10 µM": 104}, {"molecule": "Cc1c(CN2CCC3(CC2)CCN(C(=O)c2ccc4c(c2)C(NC(=O)c2cc(C(F)(F)F)ccc2Cl)CC4)CC3)cnn1C", "note": "(centres unmarked) [IND_CC-664, 2-Chloro-N-[6-[9-[(1,5-dimethyl-1H-pyrazol-4-yl)-methyl]-3,9-diazaspiro[5.5]-undecane-3-carbonyl]-2,3-dihydro-1H-inden-1-yl]-5-(trifluoromethyl)benzamide]", "inhibition at 10 µM": 54}, {"molecule": "CCn1cc(CN2CCC3(CC2)CCN(C(=O)c2ccc4c(c2)C(NC(=O)c2c(F)cccc2Cl)CC4)C3)c(C)n1", "note": "(centres unmarked) [IND_CC-772, 2-Chloro-N-[6-[8-[(1-ethyl-3-methyl-1H-pyrazol-4-yl)-methyl]-2,8-diazaspiro-[4.5]decane-2-carbonyl]-2,3-dihydro-1H-inden-1-yl]-6-fluoro-benzamide]", "inhibition at 10 µM": 52}, {"molecule": "CC(C)CN1CCC2(CC1)CCN(C(=O)c1ccc3c(c1)C(NC(=O)c1cc(C(F)(F)F)ccc1Cl)CC3)CC2", "note": "(centres unmarked) [IND_CC-698, 2-Chloro-N-[6-[9-(2-methyl-propyl)-3,9-diazaspiro[5.5]undecane-3-carbonyl]-2,3-dihydro-1H-inden-1-yl]-5-(trifluoromethyl)-benzamide]", "inhibition at 10 µM": 90}, {"molecule": "Cn1nnc2cc(CN3CCC4(CC3)CCN(C(=O)c3ccc5c(c3)C(NC(=O)c3c(F)cccc3Cl)CC5)C4)ccc21", "note": "(centres unmarked) [IND_CC-776, 2-Chloro-6-fluoro-N-[6-[8-[(1-methyl-1H-benzotriazol-5-yl)-methyl]-2,8-diazaspiro[4.5]decane-2-carbonyl]-2,3-dihydro-1H-inden-1-yl]-benzamide]", "inhibition at 10 µM": 99}, {"molecule": "O=C(NC1CCc2ccc(C(=O)N3CCC4(CCN(Cc5cc(F)ccc5F)CC4)CC3)cc21)c1cc(C(F)(F)F)ccc1Cl", "note": "(centres unmarked) [IND_CC-646, 2-Chloro-N-[6-[9-[(2,5-difluoro-phenyl)-methyl]-3,9-diazaspiro[5.5]undecane-3-carbonyl]-2,3-dihydro-1H-inden-1-yl]-5-(trifluoromethyl)-benzamide]", "inhibition at 10 µM": 66}, {"molecule": "O=C(NC1CCc2ccc(C(=O)N3CCC4(CCN(Cc5ccc6ncccc6c5)CC4)C3)cc21)c1cc(C(F)(F)F)ccc1Cl", "note": "(centres unmarked) [IND_CC-684, 2-Chloro-N-[6-[8-(quinolin-6-yl-methyl)-2,8-diazaspiro[4.5]decane-2-carbonyl]-2,3-dihydro-1H-inden-1-yl]-5-(trifluoromethyl)-benzamide]", "inhibition at 10 µM": 67}, {"molecule": "CC(C)C(=O)N(C)C1CCc2ccc(C(=O)N3CCC4(CC3)CCN(c3ccncc3)CC4)cc21", "note": "(centres unmarked) [IND_CC-418, N,2-Dimethyl-N-[6-(9-pyridin-4-yl-3,9-diazaspiro[5.5]undecane-3-carbonyl)-2,3-dihydro-1H-inden-1-yl]-propionamide]", "inhibition at 10 µM": 99}, {"molecule": "CCC(CC)CN1CCC2(CC1)CCN(C(=O)c1ccc3c(c1)C(NC(=O)c1c(F)cccc1Cl)CC3)C2", "note": "(centres unmarked) [IND_CC-778, 2-Chloro-N-[6-[8-(2-ethyl-butyl)-2,8-diazaspiro[4.5]decane-2-carbonyl]-2,3-dihydro-1H-inden-1-yl]-6-fluoro-benzamide]", "inhibition at 10 µM": 105}, {"molecule": "Cc1cc(F)cc(C)c1S(=O)(=O)NC1CCc2ccc(C(=O)N3CCC4(CCN(c5ccncc5)CC4)C3)cc21", "note": "(centres unmarked) [IND_CC-361, 4-Fluoro-2,6-dimethyl-N-[6-(8-pyridin-4-yl-2,8-diazaspiro[4.5]decane-2-carbonyl)-2,3-dihydro-1H-inden-1-yl]-benzenesulfonic acid amide]", "inhibition at 10 µM": 99}, {"molecule": "N#Cc1cccc(CN2CCC3(CC2)CCN(C(=O)c2ccc4c(c2)C(NC(=O)c2c(F)cccc2Cl)CC4)CC3)c1", "note": "(centres unmarked) [IND_CC-800, 2-Chloro-N-[6-[9-[(3-cyano-phenyl)-methyl]-3,9-diazaspiro[5.5]undecane-3-carbonyl]-2,3-dihydro-1H-inden-1-yl]-6-fluoro-benzamide]", "inhibition at 10 µM": 97}, {"molecule": "N#Cc1ccccc1CN1CCC2(CC1)CCN(C(=O)c1ccc3c(c1)C(NC(=O)c1cc(C(F)(F)F)ccc1Cl)CC3)C2", "note": "(centres unmarked) [IND_CC-660, 2-Chloro-N-[6-[8-[(2-cyano-phenyl)-methyl]-2,8-diazaspiro[4.5]decane-2-carbonyl]-2,3-dihydro-1H-inden-1-yl]-5-(trifluoromethyl)-benzamide]", "inhibition at 10 µM": 50}, {"molecule": "Cc1cc(F)ccc1S(=O)(=O)NC1CC(C)(C)c2ccc(C(=O)N3CCC4(CC3)CCN(c3ccncc3)CC4)cc21", "note": "(centres unmarked) [IND_CC-339, N-[3,3-Dimethyl-6-(3-pyridin-4-yl-3,9-diazaspiro[5.5]undecane-9-carbonyl)-1,2-dihydro-inden-1-yl]-4-fluoro-2-methyl-benzenesulfonic acid amide]", "inhibition at 10 µM": 103}, {"molecule": "O=C(NC1CCc2ccc(C(=O)N3CCC4(CCN(CC5CCCCC5)CC4)C3)cc21)c1c(F)cccc1Cl", "note": "(centres unmarked) [IND_CC-779, 2-Chloro-N-[6-[8-(cyclohexyl-methyl)-2,8-diazaspiro[4.5]decane-2-carbonyl]-2,3-dihydro-1H-inden-1-yl]-6-fluoro-benzamide]", "inhibition at 10 µM": 69}, {"molecule": "Cn1cncc1CN1CCC2(CC1)CCN(C(=O)c1ccc3c(c1)C(N(C(=O)c1ccccc1Cl)C1CC1)CC3)C2", "note": "(centres unmarked) [IND_CC-536, 2-Chloro-N-cyclopropyl-N-[6-[8-[(3-methyl-3H-imidazol-4-yl)-methyl]-2,8-diazaspiro[4.5]decane-2-carbonyl]-2,3-dihydro-1H-inden-1-yl]-benzamide]", "inhibition at 10 µM": 54}, {"molecule": "O=C(NC1CCc2ccc(C(=O)N3CCC4(CCN(Cc5cc(F)ccc5F)CC4)CC3)cc21)c1ccccc1Cl", "note": "(centres unmarked) [IND_CC-515, 2-Chloro-N-[6-[9-[(2,5-difluoro-phenyl)-methyl]-3,9-diazaspiro[5.5]undecane-3-carbonyl]-2,3-dihydro-1H-inden-1-yl]-benzamide]", "inhibition at 10 µM": 104}, {"molecule": "O=C(NC1CCc2ccc(C(=O)N3CCC4(CCN(Cc5ccc6ncccc6c5)CC4)CC3)cc21)c1cc(Cl)ccc1F", "note": "(centres unmarked) [IND_CC-677, 5-Chloro-2-fluoro-N-[6-[9-(quinolin-6-yl-methyl)-3,9-diazaspiro[5.5]undecane-3-carbonyl]-2,3-dihydro-1H-inden-1-yl]-benzamide]", "inhibition at 10 µM": 72}, {"molecule": "O=C(NC1CCc2ccc(C(=O)N3CCC4(CC3)CCN(c3ccncc3)CC4)cc21)C1CCCC1", "note": "(centres unmarked) [IND_CC-391, N-[6-(9-Pyridin-4-yl-3,9-diazaspiro[5.5]undecane-3-carbonyl)-2,3-dihydro-1H-inden-1-yl]-cyclopentanecarboxylic acid amide]", "inhibition at 10 µM": 103}, {"molecule": "Cn1cccc1CN1CCC2(CC1)CCN(C(=O)c1ccc3c(c1)C(NC(=O)c1ccccc1Cl)CC3)CC2", "note": "(centres unmarked) [IND_CC-512, 2-Chloro-N-[6-[9-[(1-methyl-1H-pyrrol-2-yl)-methyl]-3,9-diazaspiro[5.5]undecane-3-carbonyl]-2,3-dihydro-1H-inden-1-yl]-benzamide]", "inhibition at 10 µM": 92}]}, {"target": "T1, rat B1R (bradykinin receptor 1)", "assay": "FLIPR Ca2+ assay (Fluo-4) on CHO K1 cells stably transfected with the B1R gene of the rat (rB1R cells): % inhibition at 10 μM / IC50, agonist Des-Arg9-bradykinin", "type": "cell-based", "conditions": "rat B1R", "procedure,_shortened": "as §1", "units": {"% Inhibition (rat B1R) at 10 μM": "%"}, "values": [{"molecule": "2,3-Dichloro-N-methyl-N-[6-(9-pyridin-4-yl-3,9-diazaspiro[5.5]undecane-3-carbonyl)-2,3-dihydro-1H-inden-1-yl]-benzenesulfonic acid amide [IND_CC-343]", "% Inhibition (rat B1R) at 10 μM": 97}]}]}
